In brackets after ≈: the same amount, converted by molar mass. Read-outs that look alike come from different tables or passages of the source. Blank lines part the entries; values can stand above or below the molecule they belong to.
Legend:
[1] = In vitro survival of control bone marrow cells exposed to compound (Table I); assay type: cell-based; details: human, 10 μg/ml
Source text: (§1) In vitro activity against certain human tumor cell lines. CELL LINES: Eight different established human cell lines (CALU (lung), COLO320 (colon), H578St (breast), HT-29 (colon), MCF-7 (breast), OM-1 (colon), SKLU (lung), and SKMES (lung) and two control cell lines (bone marrow cell lines and/or fibroblasts) were utilized. All cell lines were obtained from the Tumor Cloning Laboratory, Institute for Drug Development, Cancer Therapy and Research Center, San Antonio, Tex. All cell lines grew as monolayers in the appropriate culture medium supplemented with heat-inactivated calf serum. All reagents were obtained from Grand Island Biological Co., Grand Island, N.Y.
IN VITRO EXPOSURE OF TUMOR CELLS TO COMPOUNDS: Stock solutions of intravenous (iv) formulations of certain of the compounds of the present invention (as shown in Table I below), as well as intravenous formulations of 5-FU (control) were used. The iv formulations of the compounds of the present invention were prepared with sterile buffered saline and stored at -70° C. until required for testing.
(§2) Following trypsinization, tumor cells were suspended in tissue culture medium and exposed to the antitumor agents continuously at three different concentrations: 10, 1 and 0.1 μg/ml.
RADIOMETRIC MEASUREMENT OF GROWTH INHIBITION: Growth inhibition was assessed with the BACTEC System 460 (Johnston Laboratories, Towson, Md.) after addition of the antitumor agent to the cells in the respective growth medium containing ^14 C-glucose at a final concentration of 2 μCi/ml. (See generally, C. Arteaga, et al., A Radiometric Method for Evaluation of Chemotherapy Sensitivity: Results of Screening a Panel of Human Breast Cancer Cell Lines, Cancer Research, 47, 6248-6253, (1987).)
(§3) Two mls of the tumor cell suspension containing radioactive glucose were seeded into sterile, disposable 15 ml vials by injection through self-sealing rubber-aluminum caps. […] The seeded vials were then incubated at 37° C. Measurement of the release of ^14 CO2 resulting from the metabolism of ^14 C-glucose were performed on days 6, 9, 12, and 15 in the BACTEC instrument. This instrument flushes the ^14 CO2 containing air out of the vials into an ionization chamber that converts dpm to growth index values. Chemotherapy sensitivity was calculated by comparing the growth index values of drug-treated vials to that observed in control vials. Each data point represents triplicate values.
(§4) All compounds were compared on an equimilimolar level.
The data presented in Table I are compared to results achieved with 5-FU as the control. All compounds were dosed on an equimilimolar basis. Inhibitory concentration (IC 50) is defined as the concentration required to kill 50% of the untreated cancer cells. Although the IC 50 of certain of the compounds listed in Table I may be higher than that for 5-FU (the control), the compounds of the present invention are generally less toxic to normal cells such as bone marrow or fibroblasts. […] Additionally, because of their lower toxicity to normal cells, it is anticipated that the present compounds may be dosed at a higher rate to selectively increase toxicity to the cancer cells. In this regard, a therapeutic ratio for a given compound is typically determined by the following calculation. [formula] A therapeutic ratio of <80% is considered active. In Vivo Evaluation

[2] = test system: HS578T; test: In vitro radiometric (BACTEC) growth inhibition of human tumor cell line HS578T (breast); assay type: cell-based; details: Hs-578T; for viability at 10 µg/mL: 10 μg/ml, read-out: % survival tumor
Source text: as §1
(§5) The iv formulations of the compounds of the present invention were prepared with sterile buffered saline and stored at -70° C. until required for testing.
as §2
(§6) RADIOMETRIC MEASUREMENT OF GROWTH INHIBITION: Growth inhibition was assessed with the BACTEC System 460 (Johnston Laboratories, Towson, Md.) after addition of the antitumor agent to the cells in the respective growth medium containing ^14 C-glucose at a final concentration of 2 μCi/ml.
as §3, with “Chemotherapy sensitivity was calculated by comparing the growth index values of drug-treated vials to that observed in control vials.” left out
as §4
(§7) All compounds were dosed on an equimilimolar basis. […] [formula] A therapeutic ratio of <80% is considered active. In Vivo Evaluation

[3] = test system: SKMES; test: In vitro radiometric (BACTEC) growth inhibition of human tumor cell line SKMES (lung); assay type: cell-based
Source text: as §1, §5, §2, §6
as §3, with “Chemotherapy sensitivity was calculated by comparing the growth index values of drug-treated vials to that observed in control vials.” left out
as §4, §7

[4] = test system: SKLU; test: In vitro radiometric (BACTEC) growth inhibition of human tumor cell line SKLU (lung); assay type: cell-based; details: for viability at 10 µg/mL: 10 μg/ml
Source text: as §1, §5, §2, §6
as §3, with “Chemotherapy sensitivity was calculated by comparing the growth index values of drug-treated vials to that observed in control vials.” left out
as §4, §7

[5] = test system: MCF-7; test: In vitro radiometric (BACTEC) growth inhibition of human tumor cell line MCF-7 (breast); assay type: cell-based; details: for viability at 10 µg/mL: MCF7, MCF-7, 10 μg/ml
Source text: as §1, §5, §2, §6
as §3, with “Chemotherapy sensitivity was calculated by comparing the growth index values of drug-treated vials to that observed in control vials.” left out
as §4, §7

[6] = test system: OM-1; test: In vitro radiometric (BACTEC) growth inhibition of human tumor cell line OM-1 (colon); assay type: cell-based; details: for viability at 10 µg/mL: OM-1, 10 μg/ml
Source text: as §1, §5, §2, §6
as §3, with “Chemotherapy sensitivity was calculated by comparing the growth index values of drug-treated vials to that observed in control vials.” left out
as §4, §7

[7] = test system: HT-29; test: In vitro radiometric (BACTEC) growth inhibition of human tumor cell line HT-29 (colon); assay type: cell-based; details: for viability at 10 µg/mL: 10 μg/ml
Source text: as §1, §5, §2, §6
as §3, with “Chemotherapy sensitivity was calculated by comparing the growth index values of drug-treated vials to that observed in control vials.” left out
as §4, §7

[8] = test system: CALU; test: In vitro radiometric (BACTEC) growth inhibition of human tumor cell line CALU (lung); assay type: cell-based
Source text: as §1, with “N.Y. […]” for “N.Y.”
(§8) RADIOMETRIC MEASUREMENT OF GROWTH INHIBITION: Growth inhibition was assessed with the BACTEC System 460 (Johnston Laboratories, Towson, Md.) after addition of the antitumor agent to the cells in the respective growth medium containing ^14 C-glucose at a final concentration of 2 μCi/ml. […]
(§9) Two mls of the tumor cell suspension containing radioactive glucose were seeded into sterile, disposable 15 ml vials by injection through self-sealing rubber-aluminum caps. […] Chemotherapy sensitivity was calculated by comparing the growth index values of drug-treated vials to that observed in control vials. […]

[9] = test system: COLO320; test: In vitro radiometric (BACTEC) growth inhibition of human tumor cell line COLO320 (colon); assay type: cell-based
Source text: as §1, with “N.Y. […]” for “N.Y.”
as §8, §9

[10] = test system: HS578T; test: In vitro radiometric (BACTEC) growth inhibition of human tumor cell line HS578T (breast); assay type: cell-based; details: Hs-578T, 6 μg/ml, read-out: % survival tumor
[11] = background statement on marketed drug; cited from earlier work
[12] = HS578T, continuous exposure, read-out: IC 50
[13] = SKLU, read-out: % survival tumor
[14] = SKLU, continuous exposure, read-out: IC 50
[15] = MCF7, MCF-7, continuous exposure, read-out: IC 50
[16] = OM-1, continuous exposure, read-out: IC 50
[17] = continuous exposure, read-out: IC 50
[18] = 6 μg/ml, read-out: % survival tumor

IC50 [2, 12]: > 10 µg/mL
Compound: O=c1ccn([C@H]2OC[C@H](O)[C@H](O)[C@@H]2O)c(=O)[nH]1 [(3), β-L-ribopyranosyluracil]
viability [1]: 96% | viability at 10 µg/mL ([2]; HS578T): 86.7%

IC50 ([3]; SKMES, continuous exposure, read-out: IC 50): > 10 µg/mL | IC50 [4, 14]: > 10 µg/mL | IC50 [5, 15]: > 10 µg/mL
Compound: O=c1[nH]c(=O)n([C@H]2OC[C@H](O)[C@H](O)[C@@H]2O)cc1F [(5), β-L-ribopyranosyl-5-fluorouracil]
viability [1]: 116% | viability at 10 µg/mL ([3]; SKMES, 10 μg/ml, read-out: % survival tumor): 68.2% | viability at 10 µg/mL [4, 13]: 90.1% | viability at 10 µg/mL ([5]; read-out: % survival tumor): 76.2%

IC50 [6, 16]: > 10 µg/mL | IC50 [2, 12]: > 10 µg/mL | IC50 [5, 15]: > 10 µg/mL
Compound: Nc1ccn([C@H]2OC[C@H](O)[C@H](O)[C@@H]2O)c(=O)n1 [(8), β-L-ribopyranosylcytosine]
viability [1]: 93.1% | viability at 10 µg/mL ([6]; read-out: % survival tumor): 78.9% | viability at 10 µg/mL ([2]; HS578T): 89.2% | viability at 10 µg/mL ([5]; read-out: % survival tumor): 72.2%

IC50 [6, 16]: 8.3 µg/mL (≈ 31.1 µM) | IC50 [2, 12]: 7.8 µg/mL (≈ 29.2 µM)
Compound: Nc1ncnc2c1ncn2[C@H]1OC[C@H](O)[C@H](O)[C@@H]1O [(11)]
viability [1]: 94.1% | viability at 10 µg/mL ([6]; read-out: % survival tumor): 41.6% | viability at 10 µg/mL ([2]; HS578T): 43.6%

IC50 [7, 17]: > 10 µg/mL
Compound: Nc1nc2c(ncn2[C@H]2OC[C@H](O)[C@H](O)[C@@H]2O)c(=O)[nH]1 [(14), β-L-ribopyranosylguanine]
viability [1]: 106% | viability at 10 µg/mL ([7]; read-out: % survival tumor): 94.8%

IC50 [4, 14]: 57.1 µg/mL (≈ 218 µM) | IC50 [7, 17]: 119 µg/mL (≈ 454 µM) | IC50 [6, 16]: 65.1 µg/mL (≈ 248 µM) | IC50 [2, 12]: 50.8 µg/mL (≈ 194 µM)
Compound: O=c1[nH]c(=O)n([C@@H]2OC[C@H](O)[C@H](O)[C@@H]2O)cc1F [(18), α-L-ribopyranosyl-5-fluorouracil]
viability [1]: 166% | viability at 10 µg/mL [4, 13]: 78.4% | viability at 10 µg/mL ([7]; read-out: % survival tumor): 83.1% | viability at 10 µg/mL ([6]; read-out: % survival tumor): 82.5% | viability at 10 µg/mL ([2]; HS578T): 83.6%

Compound: O=c1[nH]cc(F)c(=O)[nH]1 [Compound 5-FU, 5-fluorouracil, reference compound]
viability at 6 µg/mL [8, 18]: 9.9% | IC50 ([8]; continuous exposure): < 0.6 µg/mL | IC50 [3]: < 0.6 µg/mL | viability at 6 µg/mL ([3]; SKMES, 6 μg/ml, read-out: % survival tumor): 29.1% | IC50 [4]: 1.05 µg/mL (≈ 8.07 µM) | viability at 6 µg/mL ([4]; SKLU, 6 μg/ml, read-out: % survival tumor): 24.7% | viability at 6 µg/mL ([9]; COLO 320, 6 μg/ml, read-out: % survival tumor): 1% | IC50 ([9]; COLO 320, continuous exposure): < 0.6 µg/mL | IC50 [7]: 0.61 µg/mL (≈ 4.69 µM) | viability at 6 µg/mL [7, 18]: 5.7% | IC50 [6]: 1.47 µg/mL (≈ 11.3 µM) | viability at 6 µg/mL ([6]; OM-1, 6 μg/ml, read-out: % survival tumor): 20.1% | IC50 [2]: < 0.6 µg/mL | IC50 ([5]; MCF7): < 0.6 µg/mL | viability at 6 µg/mL ([5]; MCF7, MCF-7, 6 μg/ml, read-out: % survival tumor): 4.2% | viability at 6 µg/mL [10]: 12.5% | side effects [11]: GI side effects like nausea, vomiting and diarrhea, leukopenia, thrombocytopenia, alopecia
